Here are results for two compounds from patent US20130053243A1, “PLANTS HAVING INCREASED TOLERANCE TO HERBICIDES” (BASF SE, priority 2010, published 2013).

Experiment [1] deals with T1, Arabidopsis HPPD variant Q293H (Arabidopsis thaliana, UniProt P93836, Q293H).
T1 construct: His6 (N); made in house; host or cells: E. coli BL21 (DE3)
In words: HPPD activity assay, mutant enzyme. The format is biochemical. As to the method: HPPD produces homogentisic acid and CO2 from 4-hydroxyphenylpyruvate (4-HPP) and O2. The activity assay for HPPD is based on the analysis of homogentisic acid by reversed phase HPLC.
The assay mixture can contain 150 mM potassium phosphate buffer pH 7.0, 50 mM L-ascorbic acid, 1 μM FeSO4 and 7 μg of purified enzyme in a total volume of 1 ml.
Inhibitors are dissolved in DMSO (dimethylsulfoxide) to a concentration of 20 mM or 0.5 mM, respectively. From this stock solution serial five-fold dilutions are prepared in DMSO, which are used in the assay. The respective inhibitor solution accounts for 1% of the assay volume. Thus, final inhibitor concentrations range from 200 μM to 2.5 nM or from 5 μM to 63 pM, respectively.
After a preincubation of 30 min the reaction is started by adding 4-HPP to a final concentration of 0.1 mM. The reaction is allowed to proceed for 120 min at room temperature. The reaction is stopped by addition of 100 μl of 4.5 M phosphoric acid.
The sample is extracted on an Oasis® HLB cartridge 3 cc/60 mg (Waters) that was preequilibrated with 63 mM phosphoric acid. L-ascorbic acid is washed out with 3 ml of 63 mM phosphoric acid. Homogentisate is eluted with 1 ml of a 1:1 mixture of 63 mM phosphoric acid and methanol (w/w).
10 μl of the eluate is analyzed by reversed phase HPLC on a Symmetry® C18 column (particle size 3.5 μm, dimensions 4.6×100 mm; Waters) using 5 mM H3PO4/15% ethanol (w/w) as an eluent.
Homogentisic acid is detected electrochemically and quantified by measuring peak areas (Empower software; Waters).
Activities are normalized by setting the uninhibited enzyme activity to 100%. IC50 values are calculated using non-linear regression.
The assay mixture can contain 150 mM potassium phosphate buffer pH 7.0, 50 mM L-ascorbic acid, 100 μM Catalase (Sigma-Aldrich), 1 μM FeSO4 and 0.2 units of purified HPPD enzyme in a total volume of 505 μl. 1 unit is defined as the amount of enzyme that is required to produce 1 nmol of HGA per minute at 20° C.
After a preincubation of 30 min the reaction is started by adding 4-HPP to a final concentration of 0.05 mM. The reaction is allowed to proceed for 45 min at room temperature. The reaction is stopped by the addition of 50 μl of 4.5 M phosphoric acid. The sample is filtered using a […] pore size PVDF filtration device.
5 μl of the cleared sample is analyzed on an Atlantis T3 column (particle size 3 μm, dimensions 3×50 mm; Waters) by isocratic elution using 90% 10 mM NaH2PO4 pH 2.2, 10% methanol (v/v).
HGA is detected electrochemically at 750 mV (mode: DC; polarity: positive) and quantified by integrating peak areas (Empower software; Waters).
Inhibitors are dissolved in DMSO (dimethylsulfoxide) to a concentration of 0.5 mM. From this stock solution serial five-fold dilutions are prepared in DMSO, which are used in the assay. The respective inhibitor solution accounts for 1% of the assay volume. Thus, final inhibitor concentrations range from 5 μM to 320 pM, respectively. Activities are normalized by setting the uninhibited enzyme activity to 100%. IC50 values are calculated using non-linear regression.
Purified, mutant HPPD enzymes are obtained by the methods described above. Dose response and kinetic measurements are carried out using the described HPPD activity assay. Apparent michaelis constants (Km) and maximal reaction velocities (Vmax) are calculated by non-linear regression with the software GraphPad Prism 5 (GraphPad Software, La Jolla, USA) using a substrate inhibition model. Apparent kcat values are calculated from Vmax assuming 100% purity of the enzyme preparation. Weighted means (by standard error) of Km and IC50 values are calculated from at least three independent experiments. The Cheng-Prusoff equation for competitive inhibition (Cheng, Y. C.; Prusoff, W. H. Biochem Pharmacol 1973, 22, 3099-3108) is used to calculate dissociation constants (Ki). Examples of the data obtained are depicted in Table 13.

The subject of experiment [2] is transgenic soybean plants, event AV3639 (AtHPPD). The experiment in a line: Greenhouse spray test, transgenic soybean T0 cuttings. The experiment is classed as in vivo, Glycine max. To be noted: two weeks after treatment, scale 0 (no injury) to 9 (complete death). As to the method:
(§1) Transgenic plants expressing heterologous HPPD or HST enzymes are tested for tolerance against coumarone-derivative herbicides in greenhouse experiments.
(§2) For post emergence treatment, the test plants are first grown to a height of 3 to 15 cm, depending on the plant habit, and only then treated with the herbicides. For this purpose, the test plants are either sown directly and grown in the same containers, or they are first grown separately and transplanted into the test containers a few days prior to treatment.
(§3) For testing of T0 plants, cuttings can be used. In the case of soybean plants, an optimal shoot for cutting is about 7.5 to 10 cm tall, with at least two nodes present. Each cutting is taken from the original transformant (mother plant) and dipped into rooting hormone powder (indole-3-butyric acid, IBA). The cutting is then placed in oasis wedges inside a bio-dome. Wild type cuttings are also taken simultaneously to serve as controls. The cuttings are kept in the bio-dome for 5-7 days and then transplanted to pots and then acclimated in the growth chamber for two more days. Subsequently, the cuttings are transferred to the greenhouse, acclimated for approximately 4 days, and then subjected to spray tests as indicated. Depending on the species, the plants are kept at 10-25° C. or 20-35° C. The test period extends over 3 weeks. During this time, the plants are tended and their response to the individual treatments is evaluated. Herbicide injury evaluations are taken at 2 and 3 weeks after treatment. Plant injury is rated on a scale of 0 to 9, 0 being no injury and 9 being complete death.

Experiment [3] relates to transgenic soybean plants, event AV3641 (AtHPPD). The experiment is described as above. The experiment is classed as in vivo, Glycine max. To be noted: two weeks after treatment, scale 0 (no injury) to 9 (complete death). As to the method:
as §1, §2, §3

In experiment [4] the test system is transgenic soybean plants, event AV3646 (CrHPPD1). The description is as above. The experiment is classed as in vivo, Glycine max. The following applies: two weeks after treatment, scale 0 (no injury) to 9 (complete death). As to the method:
as §1, §2, §3

For experiment [5], the system named is transgenic soybean plants, event AV3653 (AtHPPD). The description is as above. The experiment is classed as in vivo, Glycine max. To be noted: two weeks after treatment, scale 0 (no injury) to 9 (complete death). As to the method:
as §1, §2, §3

The subject of experiment [6] is transgenic soybean plants, event LG4564. Described as above. The experiment is classed as in vivo, Glycine max. To be noted: event LG4564, CrHPPD2 (head unclear), two weeks after treatment, scale 0 (no injury) to 9 (complete death). As to the method:
as §1, §2, §3

In experiment [7] the test system is transgenic soybean plants, event LG4628 (CrHPPD2). The description is as above. The following applies: two weeks after treatment, scale 0 (no injury) to 9 (complete death). The experiment is classed as in vivo, Glycine max. As to the method: as §1, §2, §3

As usually defined, the Ki is a measure of affinity in units of concentration, obtained from inhibition or displacement.

T1 sequence (P93836 whole entry Q293H): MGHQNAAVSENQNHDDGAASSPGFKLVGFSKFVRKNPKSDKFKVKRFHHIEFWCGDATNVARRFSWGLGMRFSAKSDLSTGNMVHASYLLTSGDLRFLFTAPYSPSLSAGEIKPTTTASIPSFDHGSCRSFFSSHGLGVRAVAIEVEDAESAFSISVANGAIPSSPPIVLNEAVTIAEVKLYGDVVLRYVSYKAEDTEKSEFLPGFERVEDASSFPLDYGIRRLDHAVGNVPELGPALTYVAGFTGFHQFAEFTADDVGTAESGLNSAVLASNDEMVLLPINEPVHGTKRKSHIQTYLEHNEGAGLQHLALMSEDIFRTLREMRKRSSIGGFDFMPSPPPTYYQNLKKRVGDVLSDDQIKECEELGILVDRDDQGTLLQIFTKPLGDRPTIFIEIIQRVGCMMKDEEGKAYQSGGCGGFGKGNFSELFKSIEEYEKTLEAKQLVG

Turning to `CC1=NOC(c2c(Cl)ccc(C3=C(O)c4ncccc4N(CC(F)F)S3(=O)=O)c2Cl)C1` (centres unmarked) [Inhibitor 1, 3-[2,4-dichloro-3-(3-methyl-4,5-dihydroisoxazol-5-yl)phenyl]-1-(2,2-difluoroethyl)-2,2-dioxo-pyrido[3,2-c]thiazin-4-ol], the Ki in experiment [1] was 23 nM. The “Injury evaluation (plant injury rating)” value in experiment [2] (50 g/ha) is on record as 3; in experiment [2] (100 g/ha) it was 2; in experiment [2] (200 g/ha), 3; in experiment [3] (50 g/ha) it was 2; in experiment [3] (100 g/ha) it was 2; in experiment [3] (200 g/ha), 3. For the same compound, the “Injury evaluation (plant injury rating)” value is listed as 3 in experiment [4] (50 g/ha); 4 in experiment [4] (100 g/ha); 4 in experiment [4] (200 g/ha); 3 in experiment [5] (50 g/ha); 3 in experiment [5] (100 g/ha); 3 in experiment [5] (200 g/ha). Also, the “Injury evaluation (plant injury rating)” value in experiment [6] (50 g/ha) amounted to 3; in experiment [6] (100 g/ha), 3; in experiment [6] (200 g/ha) it was 4; in experiment [7] (50 g/ha) it was 4; in experiment [7] (100 g/ha), 3; in experiment [7] (200 g/ha), 4.
Turning to `Cc1c(C(=O)c2cnn(C)c2O)ccc(S(C)(=O)=O)c1C1=NOCC1` [Topramezone, reference compound], the affinity in experiment [1] corresponds to a Ki of 14 nM. Moreover, the “Injury evaluation (plant injury rating)” value in experiment [2] (6.25 g/ha) came to 4; in experiment [2] (12.5 g/ha), 5; in experiment [3] (6.25 g/ha), 4; in experiment [3] (12.5 g/ha), 4; in experiment [4] (6.25 g/ha), 6; in experiment [4] (12.5 g/ha), 7. In addition, the “Injury evaluation (plant injury rating)” value in experiment [5] (6.25 g/ha) was found to be 2; in experiment [5] (12.5 g/ha), 3; in experiment [6] (6.25 g/ha), 3; in experiment [6] (12.5 g/ha), 4; in experiment [7] (6.25 g/ha) it was 5; in experiment [7] (12.5 g/ha), 6.
